Test results from US20240425482A1, “PYRROLIDINE DERIVATIVES AS DDRS INHIBITORS” (CHIESI FARMACEUTICI S.P.A., priority 2021, published 2024).

Experiments:
DDR2 = DDR2 (Homo sapiens (Human), UniProt Q16832); assay: DDR2 LanthaScreen Europium Kinase Binding assay; conditions: binding; 5 nM DDR2, 10 nM Kinase Tracer 178, 1 hour at rt; Ki from IC50 by Cheng-Prusoff; read-out: Ki DDR2
Experimental: (§1) DDR1 and DDR2 binding assays were performed using Life Technologies LanthaScreen™ Europium Kinase Binding assay. The compounds were incubated with 5 nM DDR1 (Carna Biosciences) or 5 nM DDR2 (Life Technologies) for 1 hour at rt in white 384-well OptiPlate (PerkinElmer), containing 20 nM or 10 nM Kinase Tracer 178 respectively and 2 nM Europium labelled anti-GST antibody (Life Technologies) in assay buffer (50 mM HEPES pH 7.5, 10 mM MgCI2, 1 mM EGTA and 0.01% BRIJ35). The ratio of fluorescence emission 665 nm/615 nm after excitation at 340 nm was obtained using the Tecan Spark 20M plate reader. IC50 values were determined in GraphPad Prism 7.0 software, using 4 parameter model: log(inhibitor) vs. response. IC50 values were converted in Ki using the Cheng-Prusoff equation (Ki=IC50/(1+[Tracer]/Kd).
(§2) Compounds C1 and C2 were tested in the same binding assay described above.

DDR1 = DDR1 (Homo sapiens (Human), UniProt Q08345); assay: DDR1 LanthaScreen Europium Kinase Binding assay; conditions: binding; 5 nM DDR1, 20 nM Kinase Tracer 178, 1 hour at rt; Ki from IC50 by Cheng-Prusoff; read-out: Ki DDR1
DDR1, sequence (Q08345 19-913): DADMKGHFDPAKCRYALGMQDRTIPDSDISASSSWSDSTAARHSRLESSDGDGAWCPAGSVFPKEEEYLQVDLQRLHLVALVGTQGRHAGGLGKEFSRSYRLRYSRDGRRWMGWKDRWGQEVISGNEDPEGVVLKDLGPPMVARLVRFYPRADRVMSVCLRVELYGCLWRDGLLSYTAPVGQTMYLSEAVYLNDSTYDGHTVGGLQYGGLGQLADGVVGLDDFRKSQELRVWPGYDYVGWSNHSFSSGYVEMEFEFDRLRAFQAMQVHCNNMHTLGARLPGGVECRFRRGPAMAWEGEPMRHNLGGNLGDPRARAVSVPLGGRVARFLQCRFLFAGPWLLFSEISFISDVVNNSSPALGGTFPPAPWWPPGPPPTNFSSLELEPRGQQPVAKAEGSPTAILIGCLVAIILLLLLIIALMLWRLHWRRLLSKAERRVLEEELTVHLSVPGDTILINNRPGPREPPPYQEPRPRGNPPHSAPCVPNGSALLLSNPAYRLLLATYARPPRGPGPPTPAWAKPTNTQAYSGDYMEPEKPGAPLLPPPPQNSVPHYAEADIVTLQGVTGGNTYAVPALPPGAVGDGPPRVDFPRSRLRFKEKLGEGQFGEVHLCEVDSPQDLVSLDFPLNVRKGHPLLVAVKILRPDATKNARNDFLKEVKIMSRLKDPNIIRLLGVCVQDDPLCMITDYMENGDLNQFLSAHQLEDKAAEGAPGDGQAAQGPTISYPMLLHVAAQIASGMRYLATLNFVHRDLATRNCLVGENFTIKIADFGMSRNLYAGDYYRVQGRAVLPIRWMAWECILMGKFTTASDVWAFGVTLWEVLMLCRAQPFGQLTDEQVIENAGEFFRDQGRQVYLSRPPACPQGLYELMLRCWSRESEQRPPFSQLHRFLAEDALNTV
Experimental: as §1, §2

DDR2, sequence (Q16832 22-855): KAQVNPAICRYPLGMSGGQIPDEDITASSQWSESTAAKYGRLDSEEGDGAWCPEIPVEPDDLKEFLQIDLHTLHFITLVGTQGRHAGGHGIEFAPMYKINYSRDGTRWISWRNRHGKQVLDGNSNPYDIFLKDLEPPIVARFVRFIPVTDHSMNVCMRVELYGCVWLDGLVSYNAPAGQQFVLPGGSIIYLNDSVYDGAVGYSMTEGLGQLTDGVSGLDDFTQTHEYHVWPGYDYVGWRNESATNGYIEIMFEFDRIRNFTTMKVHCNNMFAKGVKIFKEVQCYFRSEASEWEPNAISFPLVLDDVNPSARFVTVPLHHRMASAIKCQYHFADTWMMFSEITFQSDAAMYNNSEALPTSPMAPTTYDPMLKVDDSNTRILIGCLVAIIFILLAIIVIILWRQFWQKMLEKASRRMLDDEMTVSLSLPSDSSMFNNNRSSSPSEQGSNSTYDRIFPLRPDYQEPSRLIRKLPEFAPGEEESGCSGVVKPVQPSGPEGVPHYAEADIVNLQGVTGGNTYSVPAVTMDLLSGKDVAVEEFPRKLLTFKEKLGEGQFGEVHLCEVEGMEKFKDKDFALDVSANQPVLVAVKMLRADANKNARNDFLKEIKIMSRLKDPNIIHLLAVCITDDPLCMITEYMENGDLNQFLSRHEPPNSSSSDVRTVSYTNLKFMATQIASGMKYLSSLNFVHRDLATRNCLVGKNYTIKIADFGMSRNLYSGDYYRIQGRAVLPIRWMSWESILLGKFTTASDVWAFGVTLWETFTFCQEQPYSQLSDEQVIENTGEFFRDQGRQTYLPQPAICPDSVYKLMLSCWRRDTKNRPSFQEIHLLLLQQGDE

Row | Ki (DDR2) [nM] | Ki (DDR1) [nM] | SMILES
1 | < 10 | < 10 | COc1cncc(N2CCC(c3cc(C(=O)Nc4cccc(C(F)(F)F)c4)ccc3C)C2)c1 (centres unmarked) [Example 3, 3-(1-(5-methoxypyridin-3-yl)pyrrolidin-3-yl)-4-methyl-N-(3-(trifluoromethyl)phenyl)benzamide]
2 | 25 to 60 | < 10 | Cc1ccc(C(=O)Nc2cccc(C(F)(F)F)c2)cc1C1CCN(c2cncc(NCCN(C)C)c2)C1 (centres unmarked) [Example 21, 3-(1-(5-((2-(dimethylamino)ethyl)amino)pyridin-3-yl)pyrrolidin-3-yl)-4-methyl-N-(3-(trifluoromethyl)phenyl)benzamide]
3 | < 10 | < 10 | Cc1ccc(C(=O)Nc2cccc(C(F)(F)F)c2)cc1[C@@H]1CCN(c2cccnc2)C1 [Example 16, (S)-4-methyl-3-(1-(pyridin-3-yl)pyrrolidin-3-yl)-N-(3-(trifluoromethyl)phenyl)benzamide]
4 | 25 to 60 | < 10 | Cc1ccc(C(=O)Nc2cccc(C(F)(F)F)c2)cc1C1CCN(c2cncc(OCCN3CCOCC3)c2)C1 (centres unmarked) [Example 5, 4-methyl-3-(1-(5-(2-morpholinoethoxy)pyridin-3-yl)pyrrolidin-3-yl)-N-(3-(trifluoromethyl)phenyl)benzamide]
5 | 10 to 25 | < 10 | Cc1ccc(C(=O)Nc2cccc(C(F)(F)F)c2)cc1C1CCN(c2cncc(CN3CCOCC3)c2)C1 (centres unmarked) [Example 11, 4-methyl-3-(1-(5-(morpholinomethyl)pyridin-3-yl)pyrrolidin-3-yl)-N-(3-(trifluoromethyl)phenyl)benzamide]
6 | 10 to 25 | < 10 | COCCn1cc(Nc2cncc(N3CC[C@@H](c4cc(C(=O)Nc5cccc(C(F)(F)F)c5)ccc4C)C3)c2)cn1 [Example 46, (S)-3-(1-(5-((1-(2-methoxyethyl)-1H-pyrazol-4-yl)amino)pyridin-3-yl)pyrrolidin-3-yl)-4-methyl-N-(3-(trifluoromethyl)phenyl)benzamide]
7 | 10 to 25 | < 10 | Cc1ccc(C(=O)Nc2cccc(C(F)(F)F)c2)cc1[C@@H]1CCN(c2cncc(C(F)F)c2)C1 [Example 38, (S)-3-(1-(5-(difluoromethyl)pyridin-3-yl)pyrrolidin-3-yl)-4-methyl-N-(3-(trifluoromethyl)phenyl)benzamide]
8 | 25 to 60 | 10 to 25 | Cc1ccc(C(=O)Nc2cccc(C(F)(F)F)c2)cc1C1CCN(c2ccnc(C(N)=O)c2)C1 (single isomer, unassigned) [Example 55, 4-(3-(2-methyl-5-((3-(trifluoromethyl)phenyl)carbamoyl)phenyl)pyrrolidin-1-yl)picolinamide]
9 | < 10 | < 10 | CNC(=O)c1cncc(N2CC[C@@H](c3cc(C(=O)Nc4cccc(C(F)(F)F)c4)ccc3C)C2)c1 [Example 26, (S)-N-methyl-5-(3-(2-methyl-5-((3-(trifluoromethyl)phenyl)carbamoyl)phenyl)pyrrolidin-1-yl)nicotinamide]
10 | 25 to 60 | 10 to 25 | Cc1ccc(C(=O)Nc2cccc(C(F)(F)F)c2)cc1[C@@H]1CCN(c2ccc(Nc3cnn(C)c3)nc2)C1 [Example 44, (S)-4-methyl-3-(1-(6-((1-methyl-1H-pyrazol-4-yl)amino)pyridin-3-yl)pyrrolidin-3-yl)-N-(3-(trifluoromethyl)phenyl)benzamide]
11 | > 60 | 25 to 60 | Cc1ccc(C(=O)Nc2cccc(C(F)(F)F)c2)cc1[C@@H]1CCN(c2cncc(C(=O)N3CCC(F)(F)CC3)c2)C1 [Example 32, (S)-3-(1-(5-(4,4-difluoropiperidine-1-carbonyl)pyridin-3-yl)pyrrolidin-3-yl)-4-methyl-N-(3-(trifluoromethyl)phenyl)benzamide]
12 | 10 to 25 | < 10 | Cc1ccc(C(=O)Nc2cccc(C(F)(F)F)c2)cc1[C@@H]1CCN(c2cncc(C(=O)N3CCOCC3)c2)C1 [Example 33, (S)-4-methyl-3-(1-(5-(morpholine-4-carbonyl)pyridin-3-yl)pyrrolidin-3-yl)-N-(3-(trifluoromethyl)phenyl)benzamide]
13 | < 10 | < 10 | Cc1ccc(C(=O)Nc2cccc(C(F)(F)F)c2)cc1[C@@H]1CCN(c2cncc(C(=O)NCCN(C)C)c2)C1 [Example 34, (S)-N-(2-(dimethylamino)ethyl)-5-(3-(2-methyl-5-((3-(trifluoromethyl)phenyl)carbamoyl)phenyl)pyrrolidin-1-yl)nicotinamide]
14 | 25 to 60 | < 10 | Cc1ccc(C(=O)Nc2cccc(C(F)(F)F)c2)cc1[C@@H]1CCN(c2ccc(N)nc2)C1 [Example 50, (S)-3-(1-(6-aminopyridin-3-yl)pyrrolidin-3-yl)-4-methyl-N-(3-(trifluoromethyl)phenyl)benzamide]
15 | < 10 | < 10 | Cc1ccc(C(=O)Nc2cccc(C(F)(F)F)c2)cc1[C@@H]1CCN(c2cncc(C(N)=O)c2)C1 [Example 19, (S)-5-(3-(2-methyl-5-((3-(trifluoromethyl)phenyl)carbamoyl)phenyl)pyrrolidin-1-yl)nicotinamide]
16 | < 10 | < 10 | COCCNC(=O)c1cncc(N2CC[C@@H](c3cc(C(=O)Nc4cccc(C(F)(F)F)c4)ccc3C)C2)c1 [Example 35, (S)-N-(2-methoxyethyl)-5-(3-(2-methyl-5-((3-(trifluoromethyl)phenyl)carbamoyl)phenyl)pyrrolidin-1-yl)nicotinamide]
17 | 10 to 25 | < 10 | Cc1ccc(C(=O)Nc2ccc(CN3CCOCC3)c(C(F)(F)F)c2)cc1[C@@H]1CCN(c2cncc(C(N)=O)c2)C1 [Example 56, (S)-5-(3-(2-methyl-5-((4-(morpholinomethyl)-3-(trifluoromethyl)phenyl)carbamoyl)phenyl)pyrrolidin-1-yl)nicotinamide]
18 | 10 to 25 | < 10 | CC(=O)Nc1ncc(N2CC[C@@H](c3cc(C(=O)Nc4cccc(C(F)(F)F)c4)ccc3C)C2)cn1 [Example 51, (S)-3-(1-(2-acetamidopyrimidin-5-yl)pyrrolidin-3-yl)-4-methyl-N-(3-(trifluoromethyl)phenyl)benzamide]
19 | < 10 | < 10 | Cc1ccc(C(=O)Nc2cccc(C(F)(F)F)c2)cc1C1CCN(c2ccnc(C(N)=O)c2)C1 (single isomer, unassigned) [Example 54, 4-(3-(2-methyl-5-((3-(trifluoromethyl)phenyl)carbamoyl)phenyl)pyrrolidin-1-yl)picolinamide]
20 | 10 to 25 | < 10 | COCCOc1cncc(N2CC[C@@H](c3cc(C(=O)Nc4cccc(C(F)(F)F)c4)ccc3C)C2)c1 [Example 30, (S)-3-(1-(5-(2-methoxyethoxy)pyridin-3-yl)pyrrolidin-3-yl)-4-methyl-N-(3-(trifluoromethyl)phenyl)benzamide]
21 | 10 to 25 | < 10 | CNc1ncc(N2CC[C@@H](c3cc(C(=O)Nc4cccc(C(F)(F)F)c4)ccc3C)C2)cn1 [Example 49, (S)-4-methyl-3-(1-(2-(methylamino)pyrimidin-5-yl)pyrrolidin-3-yl)-N-(3-(trifluoromethyl)phenyl)benzamide]
22 | 10 to 25 | < 10 | CNC(=O)c1cncc(N2CC[C@H](c3cc(C(=O)Nc4cccc(C(F)(F)F)c4)ccc3C)C2)c1 [Example 28, (R)-N-methyl-5-(3-(2-methyl-5-((3-(trifluoromethyl)phenyl)carbamoyl)phenyl)pyrrolidin-1-yl)nicotinamide]
